Test results from patent publication US20180153850A1, “COMPOSITIONS AND METHODS FOR TREATMENT OF CANCER” (The Regents of the University of California, priority 2015, published 2018).
Read-outs that look alike come from different tables or passages of the source.

Key:
C4-2B tumors = experiment: In vivo tumorigenesis assay, C4-2B tumors; set-up: species or system SCID mice; settings: docetaxel 10 mg/kg once a week
Method: (§1) Tumor sizes were measured twice a week. *, P<0.05. **, P<0.01. DTX, docetaxel, Bic, bicalutamide.
(§2) Tumor tissues were harvested after 3 weeks of treatment.

DU145 cells = experiment: Cell growth assay in parental DU145 cells; assay type: cell-based; settings: Homo sapiens, DU-145, read-out: IC50 to docetaxel, 24 hrs
Method: (§3) Top panel, fluorescent and phase contrast pictures are shown. Lower panel, rhodamine intake ratio. […] Cell numbers were counted after 24 hrs of treatment. […] Cell numbers were counted after 24 hrs of treatment. […] Tumor sizes were measured twice a week.
(§4) Cells were seeded in 12-well plates at a density of 1×10^5 cells per well. Cells were treated and total cell numbers were counted using a Coulter cell counter.

TaxR tumors = experiment: In vivo tumorigenesis assay, TaxR tumors; set-up: species or system SCID mice; settings: docetaxel 10 mg/kg i.p. once a week; bicalutamide 25 mg/kg p.o. 5 days a week; 3 weeks
Method: as §1, §2

DU145-DTXR cells = experiment: Cell growth assay in DU145-DTXR cells; assay type: cell-based; settings: for IC50: 24 h; for docetaxel resistance in DU145-DTXR cells: 10 nM docetaxel with 0.5 μM elacridar or 20 μM bicalutamide or enzalutamide, 48 hrs
Method: as §3
DU145-DTXR cells were plated in 12-well plate at 1×10^5 cells per well. […] FIG. 8A: Cell numbers were counted. FIG. 8B: Cell pictures were taken to show the cell survival inhibition.
DU145-DTXR cells were plated in 12-well plate at 1×10^5 cells per well. […] Cell numbers were counted (top panel: bicalutamide; bottom panel: enzalutamide). FIG. 9B: DU145 parental cells and DU145-DTX cells were plated in 12-well plate at 1×10^5 cells per well. […] Cell numbers were counted.
as §4

TaxR cells = experiment: Cell growth assay in TaxR cells; assay type: cell-based; settings: 24 h, read-out: IC50 value of docetaxel, TaxR cells
Method: Top panel, fluorescent and phase contrast pictures are shown. Lower panel, rhodamine intake ratio. […] Cell numbers were counted after 24 hrs of treatment.
Fluorescent and phase contrast pictures are shown. Lower panel is the rhodamine intake ratio. […] Cell numbers were counted after 24 hrs of treatment. […] The numbers of colonies were counted after 3 weeks.
as §4

ABCB1 (P-gp) ATPase = ABCB1 (P-gp) ATPase (Homo sapiens, UniProt P08183); experiment: in vitro
ABCB1 = ABCB1 (Homo sapiens, UniProt P08183); settings: 48 h, 20 μmol/L
[1] = target: ABCB1 (P-glycoprotein, MDR1) (Homo sapiens, UniProt P08183); experiment: in vitro
ABCB1 (P-glycoprotein, MDR1), sequence (P08183 whole entry): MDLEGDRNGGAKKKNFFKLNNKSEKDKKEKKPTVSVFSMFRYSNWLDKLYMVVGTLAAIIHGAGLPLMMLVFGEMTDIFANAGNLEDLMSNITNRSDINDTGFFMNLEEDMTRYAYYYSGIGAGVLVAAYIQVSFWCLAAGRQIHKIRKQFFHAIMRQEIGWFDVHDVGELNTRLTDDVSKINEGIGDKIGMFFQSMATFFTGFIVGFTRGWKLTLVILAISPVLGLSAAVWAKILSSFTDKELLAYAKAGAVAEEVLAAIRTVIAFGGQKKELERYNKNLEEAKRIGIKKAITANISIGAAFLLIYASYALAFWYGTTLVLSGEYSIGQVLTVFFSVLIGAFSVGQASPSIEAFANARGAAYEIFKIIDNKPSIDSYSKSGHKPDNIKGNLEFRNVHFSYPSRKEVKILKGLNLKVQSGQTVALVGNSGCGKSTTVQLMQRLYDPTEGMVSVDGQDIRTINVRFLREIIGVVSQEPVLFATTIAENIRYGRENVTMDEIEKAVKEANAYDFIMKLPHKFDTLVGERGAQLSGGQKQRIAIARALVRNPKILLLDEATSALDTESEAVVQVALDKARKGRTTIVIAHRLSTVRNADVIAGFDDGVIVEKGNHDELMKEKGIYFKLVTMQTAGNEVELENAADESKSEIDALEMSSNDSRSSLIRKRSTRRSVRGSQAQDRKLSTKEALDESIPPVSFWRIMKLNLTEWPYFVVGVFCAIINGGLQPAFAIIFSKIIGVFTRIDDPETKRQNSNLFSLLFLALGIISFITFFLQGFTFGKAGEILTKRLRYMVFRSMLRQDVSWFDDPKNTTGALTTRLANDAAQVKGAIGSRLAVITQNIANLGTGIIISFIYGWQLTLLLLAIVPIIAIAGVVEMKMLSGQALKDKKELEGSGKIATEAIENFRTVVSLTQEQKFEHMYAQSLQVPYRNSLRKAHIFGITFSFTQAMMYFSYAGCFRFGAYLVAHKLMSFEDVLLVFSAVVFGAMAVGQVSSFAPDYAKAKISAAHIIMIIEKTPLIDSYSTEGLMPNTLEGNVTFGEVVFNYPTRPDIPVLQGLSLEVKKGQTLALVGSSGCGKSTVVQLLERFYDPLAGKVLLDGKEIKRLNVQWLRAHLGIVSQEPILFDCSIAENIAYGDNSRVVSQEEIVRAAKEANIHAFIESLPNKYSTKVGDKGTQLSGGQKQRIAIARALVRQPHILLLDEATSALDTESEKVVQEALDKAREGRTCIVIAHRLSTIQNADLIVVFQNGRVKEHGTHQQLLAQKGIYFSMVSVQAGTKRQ

ABCB1 (P-gp) ATPase, sequence (P08183 whole entry): as above
ABCB1, sequence (P08183 whole entry): as above

Row | IC50 (DU145-DTXR cells; read-out: IC50 to docetaxel) [nM] | IC50 (DU145-DTXR cells; read-out: IC50 value of docetaxel) [nM] | inhibition at 40 min, 2.5 µM (ABCB1 (P-gp) ATPase) [%] | rhodamine intake (ABCB1) [%] | inhibition at 24 h, 20 μM [1] [%] | inhibition at 40 min, 40 µM (ABCB1 (P-gp) ATPase) [%] | SMILES | C4-2B tumor growth (C4-2B tumors) | IC50 (DU145 cells) [nM] | tumor growth of TaxR cells (TaxR tumors) | effect on growth of DU145-DTXR cells (DU145-DTXR cells; 10 nM docetaxel, 20 μM bicalutamide, alone or combined, 24 hrs) | IC50 (TaxR cells; docetaxel alone, 24 hrs) [nM] | IC50 (TaxR cells; in combination with 20 μM bicalutamide, 24 hrs) [nM] | IC50 (TaxR cells; in combination with 20 μM enzalutamide, 24 hr) [nM] | docetaxel resistance in DU145-DTXR cells (DU145-DTXR cells)
1 | 52 | ~7.5 | – | – | – | – | CC(=O)O[C@@]12CO[C@@H]1C[C@H](O)[C@@]1(C)C(=O)[C@H](O)C3=C(C)[C@@H](OC(=O)[C@H](O)[C@@H](NC(=O)OC(C)(C)C)c4ccccc4)C[C@@](O)([C@@H](OC(=O)c4ccccc4)[C@H]21)C3(C)C [docetaxel] | significantly repressed | 4.3 | Neither docetaxel nor bicalutamide treatment alone inhibited tumor growth | only minimal effects | 140 | ~5 | ~3 | –
2 | – | – | 69 | – | – | – | COc1cc2c(cc1OC)CN(CCc1ccc(NC(=O)c3cccc4c(=O)c5cccc(OC)c5[nH]c34)cc1)CC2 [elacridar] | – | – | – | – | – | – | – | reversal of docetaxel resistance
3 | – | – | – | 66.2 | ~60 | 60 | CNC(=O)c1ccc(N2C(=S)N(c3ccc(C#N)c(C(F)(F)F)c3)C(=O)C2(C)C)cc1F [enzalutamide] | – | – | – | – | – | – | – | reversal of docetaxel resistance
